For 34 compounds, Ki results are on record in patent publication US8236792B2, “Substituted pyrrolidine amides as modulators of the histamine H3 receptor” (Janssen Pharmaceutica NV, priority 2008, dated 2012).

Some results are limits rather than exact numbers.

T1 sequence (Q9Y5N1 whole entry): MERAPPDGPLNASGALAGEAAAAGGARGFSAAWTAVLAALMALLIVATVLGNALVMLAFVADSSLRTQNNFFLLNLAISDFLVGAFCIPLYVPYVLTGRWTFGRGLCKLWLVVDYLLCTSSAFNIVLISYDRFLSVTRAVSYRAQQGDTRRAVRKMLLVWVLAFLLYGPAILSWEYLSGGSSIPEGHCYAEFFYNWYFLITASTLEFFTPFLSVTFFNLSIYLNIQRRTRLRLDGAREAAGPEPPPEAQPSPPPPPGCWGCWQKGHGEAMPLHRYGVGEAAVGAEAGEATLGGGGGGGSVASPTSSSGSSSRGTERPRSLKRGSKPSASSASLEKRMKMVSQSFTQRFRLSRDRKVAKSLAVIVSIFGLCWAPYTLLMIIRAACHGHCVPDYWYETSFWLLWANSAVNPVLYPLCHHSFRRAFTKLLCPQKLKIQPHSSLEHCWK

For the first assay, the target named is human H3 receptor (Homo sapiens, UniProt Q9Y5N1). The assay is described as follows: H3 Receptor Binding (Human) Method 2, [125I]-iodoproxyfan competitive radioligand binding. On the set-up: expressed in transfected cells. The following applies: Method 2; SK-N-MC cell membranes; [125I]-iodoproxyfan 1 nM; apparent Ki; free base or hydrochloride salt; average of results; read-out: Human H3 Ki.
Sequence of human H3 receptor (Q9Y5N1 whole entry): as above
Experimental: SK-N-MC cells expressing the human H3 receptor were grown to confluence and tissue culture plates, washed with phosphate-buffered saline, and scraped into 50 mL tubes. After centrifugation, the supernatant was aspirated, and the pellets frozen and stored at −80° C. […] The homogenate was centrifuged at 25000×g for 25 min. […] Reactions were stopped by filtration through GF/B filter plates pre-soaked in 0.3% polyethylenimine and subsequently washed with Tris 50 mM, 5 mM EDTA buffer. Plates were dried for 1 h in a 55° C. oven. Scintillation fluid was added and the radioactivity was counted in a Packard TopCount. Non-specific binding to the H3 receptor was defined by radioactivity that was bound in the presence of 100 μM histamine.
Compounds were tested in their free base or hydrochloride salt forms.
For the compound `O=C([C@@H]1C[C@H](Oc2ccc(F)cc2)CN1C1CC1)N1CCCN(C2CCC2)CC1` [Example 141, (2S,4S)-2-(4-Cyclobutyl-[1,4]diazepan-1-yl)-[1-cyclopropyl-4-(4-fluoro-phenoxy)-pyrrolidin-2-yl]-methanone], the Ki was 0.055 µM.

As for `O=C([C@H]1C[C@H](Oc2ccc(F)cc2)CN1C1CC1)N1CCCN(C2CCC2)CC1` [Example 142, (2R,4S)-1-Cyclopropyl-2-(4-cyclobutyl-[1,4]diazepane-1-carbonyl)-4-(4-fluoro-phenoxy)-pyrrolidine], the Ki came to 0.013 µM.

As to `O=C(N1CCCN(C2CCC2)CC1)[C@@]1(Cc2cccc(F)c2)CCCN1` [Example 168, (2S)-2-(4-Cyclobutyl-[1,4]diazepane-1-carbonyl)-2-(3-fluoro-benzyl)-pyrrolidine], the Ki came out at 0.044 µM.

`O=C(N1CCCN(C2CCC2)CC1)[C@@]1(Cc2ccc(C(F)(F)F)cc2)CCCN1` [Example 170, (2S)-(4-Cyclobutyl-[1,4]diazepan-1-yl)-[2-(4-trifluoromethyl-benzyl)-pyrrolidin-2-yl]-methanone]: the Ki stood at 0.201 µM.

On to `O=C(N1CCCN(C2CCC2)CC1)[C@@]1(Cc2ccccc2)CCCN1` [Example 171, (2S)-(2-Benzyl-pyrrolidin-2-yl)-(4-cyclobutyl-[1,4]diazepan-1-yl)-methanone], for which the Ki was 0.011 µM.

Still in this assay, the particulars now being: read-out: Human H3 Ki.
Take `CS(=O)(=O)N1C[C@@H](Oc2ccc(F)cc2)C[C@@H]1C(=O)N1CCCN(C2CCC2)CC1` [Example 140, (2R,4S)-(4-Cyclobutyl-[1,4]diazepan-1-yl)-[4-(4-fluoro-phenoxy)-1-methanesulfonyl-pyrrolidin-2-yl]-methanone]: the Ki was 0.001 µM.

As to `CC(C)(C)OC(=O)N1CC[C@@H](Oc2cccc(F)c2)[C@H]1C(=O)N1CCCN(C2CCC2)CC1` [Example 143, (2S,3R)-2-(4-Cyclobutyl-[1,4]diazepane-1-carbonyl)-3-(3-fluoro-phenoxy)-pyrrolidine-1-carboxylic acid tert-butyl ester], the Ki worked out at 0.845 µM.

As to `CC(C)(C)OC(=O)N1CC[C@@H](Oc2ccc(F)cc2)[C@H]1C(=O)N1CCCN(C2CCC2)CC1` [Example 144, (2S,3R)-2-(4-Cyclobutyl-[1,4]diazepane-1-carbonyl)-3-(4-fluoro-phenoxy)-pyrrolidine-1-carboxylic acid tert-butyl ester], the Ki was found to be 0.957 µM.

For the compound `CC(C)(C)OC(=O)N1CC[C@@H](Oc2ccc(C#N)cc2)[C@H]1C(=O)N1CCCN(C2CCC2)CC1` [Example 145, (2S,3R)-3-(4-Cyano-phenoxy)-2-(4-cyclobutyl-[1,4]diazepane-1-carbonyl)-pyrrolidine-1-carboxylic acid tert-butyl ester], the Ki worked out at 1.1 µM.

Take `CSc1ccc(O[C@@H]2CCN(C(=O)OC(C)(C)C)[C@@H]2C(=O)N2CCCN(C3CCC3)CC2)cc1` [Example 146, (2S,3R)-2-(4-Cyclobutyl-[1,4]diazepane-1-carbonyl)-3-(4-methylsulfanyl-phenoxy)-pyrrolidine-1-carboxylic acid tert-butyl ester]: the Ki came to 1.47 µM.

As to `CC(C)(C)OC(=O)N1C[C@@H](OCc2cccc(F)c2)C[C@@H]1C(=O)N1CCCN(C2CCC2)CC1` [Example 147, (2R,4S)-2-(4-Cyclobutyl-[1,4]diazepane-1-carbonyl)-4-(3-fluoro-benzyloxy)-pyrrolidine-1-carboxylic acid tert-butyl ester], the Ki is 0.008 µM.

`CC(C)(C)OC(=O)N1C[C@@H](OCc2ccc(F)cc2)C[C@@H]1C(=O)N1CCCN(C2CCC2)CC1` [Example 148, (2R,4S)-2-(4-Cyclobutyl-[1,4]diazepane-1-carbonyl)-4-(4-fluoro-benzyloxy)-pyrrolidine-1-carboxylic acid tert-butyl ester]: the Ki is 0.006 µM.

In the case of `CC(C)(C)OC(=O)N1C[C@@H](OCc2ccc(C#N)cc2)C[C@@H]1C(=O)N1CCCN(C2CCC2)CC1` [Example 149, (2R,4S)-4-(4-Cyano-benzyloxy)-2-(4-cyclobutyl-[1,4]diazepane-1-carbonyl)-pyrrolidine-1-carboxylic acid tert-butyl ester], the Ki is 0.013 µM.

Consider `CC(=O)N1C[C@@H](Oc2cccc(F)c2)C[C@@H]1C(=O)N1CCCNCC1` [Example 156, (2R,4S)-4-[1-Acetyl-4-(3-fluoro-Phenoxy)-pyrrolidine-2-carbonyl]-[1,4]diazepane], for which the Ki worked out at 1.16 µM.

Take `CC(C)(C)OC(=O)N1CCC[C@]1(Cc1cccc(F)c1)C(=O)N1CCCN(C2CCC2)CC1` [Example 164, (2S)-2-(4-Cyclobutyl-[1,4]diazepane-1-carbonyl)-2-(3-fluoro-benzyl)-pyrrolidine-1-carboxylic acid tert-butyl ester]: the Ki stood at 0.053 µM.

For `CC(C)(C)OC(=O)N1CCC[C@]1(Cc1ccc(F)cc1)C(=O)N1CCCN(C2CCC2)CC1` [Example 165, (2S)-2-(4-Cyclobutyl-[1,4]diazepane-1-carbonyl)-2-(4-fluoro-benzyl)-pyrrolidine-1-carboxylic acid tert-butyl ester], the Ki was found to be 0.257 µM.

For the compound `CC(C)(C)OC(=O)N1CCC[C@]1(Cc1ccc(C(F)(F)F)cc1)C(=O)N1CCCN(C2CCC2)CC1` [Example 166, (2S)-2-(4-Cyclobutyl-[1,4]diazepane-1-carbonyl)-2-(4-trifluoromethyl-benzyl)-pyrrolidine-1-carboxylic acid tert-butyl ester], the Ki was 0.06 µM.

For the compound `CC(C)(C)OC(=O)N1CCC[C@]1(Cc1ccccc1)C(=O)N1CCCN(C2CCC2)CC1` [Example 167, (2S)-2-Benzyl-2-(4-cyclobutyl-[1,4]diazepane-1-carbonyl)-pyrrolidine-1-carboxylic acid tert-butyl ester], the Ki came out at 0.051 µM.

On to `O=C(N1CCCN(C2CCC2)CC1)[C@@]1(Cc2ccc(F)cc2)CCCN1` [Example 169, (2S)-(4-Cyclobutyl-[1,4]diazepan-1-yl)-[2-(4-fluoro-benzyl)-pyrrolidin-2-yl]-methanone], for which the Ki amounted to 0.027 µM.

On to `CC(C)(C)OC(=O)N1C[C@H](Cc2ccccc2)C[C@H]1C(=O)N1CCCN(C2CCC2)CC1` [Example 173, (2S,4R)-4-Benzyl-2-(4-cyclobutyl-[1,4]diazepane-1-carbonyl)-pyrrolidine-1-carboxylic acid tert-butyl ester], for which the Ki was found to be 0.039 µM.

As for `CC(C)(C)OC(=O)N1C[C@H](Cc2ccc(F)cc2)C[C@H]1C(=O)N1CCCN(C2CCC2)CC1` [Example 174, (2S,4R)-2-(4-Cyclobutyl-[1,4]diazepane-1-carbonyl)-4-(4-fluoro-benzyl)pyrrolidine-1-carboxylic acid tert-butyl ester], the Ki amounted to 0.053 µM.

Consider `CC(C)(C)OC(=O)N1C[C@H](Cc2cccc(F)c2)C[C@H]1C(=O)N1CCCN(C2CCC2)CC1` [Example 175, (2S,4R)-2-(4-Cyclobutyl-[1,4]diazepane-1-carbonyl)-4-(3-fluoro-benzyl)-pyrrolidine-1-carboxylic acid tert-butyl ester], for which the Ki is 0.072 µM.

Take `CC(C)(C)OC(=O)N1C[C@H](Cc2ccsc2)C[C@H]1C(=O)N1CCCN(C2CCC2)CC1` [Example 176, (2S,4R)-2-(4-Cyclobutyl-[1,4]diazepane-1-carbonyl)-4-thiophen-3-ylmethyl-pyrrolidine-1-carboxylic acid tert-butyl ester]: the Ki was 0.02 µM.

Consider `O=C([C@@H]1C[C@@H](Cc2ccccc2)CN1)N1CCCN(C2CCC2)CC1` [Example 177, (2S,4R)-(4-Benzyl-pyrrolidin-2-yl)-(4-cyclobutyl-[1,4]diazepan-1-yl)-methanone], for which the Ki is 0.263 µM.

Take `O=C([C@@H]1C[C@@H](Cc2ccc(F)cc2)CN1)N1CCCN(C2CCC2)CC1` [Example 178, (2S,4R)-(4-Cyclobutyl-[1,4]diazepan-1-yl)-[4-(4-fluoro-benzyl)-pyrrolidin-2-yl]-methanone]: the Ki amounted to 0.299 µM.

As for `O=C([C@@H]1C[C@@H](Cc2cccc(F)c2)CN1)N1CCCN(C2CCC2)CC1` [Example 179, (2S,4R)-(4-Cyclobutyl-[1,4]diazepan-1-yl)-[4-(3-fluoro-benzyl)-pyrrolidin-2-yl]-methanone], the Ki turned out to be 0.348 µM.

As to `O=C([C@@H]1C[C@@H](Cc2ccsc2)CN1)N1CCCN(C2CCC2)CC1` [Example 180, (2S,4R)-(4-Cyclobutyl-[1,4]diazepan-1-yl)-(4-thiophen-3-ylmethyl-pyrrolidin-2-yl)-methanone], the Ki is 0.05 µM.

As to `CC(=O)N1C[C@H](Cc2ccc(F)cc2)C[C@H]1C(=O)N1CCCN(C2CCC2)CC1` [Example 181], the Ki turned out to be 2.11 µM.

As for `CC(=O)N1C[C@H](Cc2cccc(F)c2)C[C@H]1C(=O)N1CCCN(C2CCC2)CC1` [Example 182], the Ki was 1.16 µM.

As for `CC(=O)N1C[C@H](Cc2ccsc2)C[C@H]1C(=O)N1CCCN(C2CCC2)CC1` [Example 183], the Ki was determined as 0.203 µM.

A further assay has as its target T1, cloned human H3 receptors (Homo sapiens, UniProt Q9Y5N1).
T1 construct: expressed in transfected cells
The experiment in a line: H3 Receptor Binding (Human) Method 1. The following applies: receptor stably expressed in SK-N-MC cells, free base forms, average of results.
In turn, `CC(C)(C)OC(=O)N1CC(Oc2cccc(F)c2)C[C@H]1C(=O)N1CCCN(C2CCC2)CC1` (mixture of isomers) [Example 41, (2S)-2-(4-Cyclobutyl-[1,4]diazepane-1-carbonyl)-4-(3-fluoro-phenoxy)-pyrrolidine-1-carboxylic acid tert-butyl ester] yielded a Ki of 0.018 µM.

In the case of `CC(C)(C)OC(=O)N1C[C@H](O)C[C@H]1C(=O)N1CCCN(C2CCC2)CC1` [Example 1, (2S,4R)-2-(4-Cyclobutyl-[1,4]diazepane-1-carbonyl)-4-hydroxy-pyrrolidine-1-carboxylic acid tert-butyl Ester], the Ki is 0.07 µM.

`CC(C)(C)OC(=O)N1C[C@H](O)C[C@H]1C(=O)N1CCN(C2CCC2)CC1` [Example 2, (2S,4R)-2-(4-Cyclobutyl-piperazine-1-carbonyl)-4-hydroxy-pyrrolidine-1-carboxylic acid tert-butyl Ester] displayed a Ki of over 10 µM.

With `CC(C)(C)OC(=O)N1C[C@@H](Oc2ccc(F)cc2)C[C@H]1C(=O)N1CCCN(C2CCC2)CC1` [Example 11, (2S,4S)-2-(4-Cyclobutyl-[1,4]diazepane-1-carbonyl)-4-(4-fluoro-phenoxy)-pyrrolidine-1-carboxylic acid tert-butyl ester], the Ki came to 0.037 µM.
